According to patent US7198906B2, “Drug sensitivity measuring method” (priority 2000, dated 2007):

Tests used:
[1] = test system: E. coli sensitive strain JM109; test: Drug susceptibility measurement with dissolved oxygen electrode, sensitive strain; type: cell-based
Source text: (§1) In step SP1, measurement of currents (output signals) is started by applying predetermined voltages to electrodes for measuring dissolved oxygen concentration. The electrodes are provided within a first compartment or well, second compartment or well, and third compartment or well, respectively. The first compartment or well is a compartment or well containing only physiological salt solution. The second compartment or well is a compartment or well containing physiological salt solution and drug solution of a first predetermined concentration. The third compartment or well is a compartment or well containing physiological salt solution and drug solution of a second predetermined concentration. […] In step SP4, current from each electrode for measuring dissolved oxygen concentration is measured at a second time interval for a third time period (for example, at every 1 second for 60 seconds). In step SP5, each time is obtained based upon each of the measured currents at which the maximum current is obtained. […] In step SP7, drug susceptibility is detected based upon the variation condition of each current value during the fourth time period. […]
(§2) Next, the electrode for measuring the dissolved oxygen concentration is mounted to each compartment or well. […] After the measurement time of 360 seconds has passed, the measured currents are stored and the measured currents are analyzed. […]

[2] = test system: E. coli resistant strain 5W (ABPC plasmid introduction); test: Drug susceptibility measurement with dissolved oxygen electrode, resistant strain; type: cell-based
Source text: as §1, §2

## CC1(C)S[C@@H]2[C@H](NC(=O)[C@H](N)c3ccccc3)C(=O)N2[C@H]1C(=O)O [ABPC, Ampicillin]
[1]; JM109+ABPC, control JM109 as reference, FIGS. 2 and 3
  variation characteristic of measured current (dissolved oxygen) following passage in time, curve versus control: more gentle than curves each corresponding to the control and the resistant strain
[1]; sensitive strain JM109 + ABPC solution 5.3 μg/ml, entire amount 0.25 ml and 0.5 ml, control JM109 without drug = 100%
  inclination of measured current for 10 seconds from the peak timing, supposing the inclination corresponding to the control to be 100%: 79.0–85.4%
[2]; 5W+ABPC, control JM109 as reference, FIGS. 2 and 3
  variation characteristic of measured current (dissolved oxygen) following passage in time, curve versus control: equal to or more steep than the curve corresponding to the control
[2]; resistant strain 5W + ABPC solution 5.3 μg/ml, entire amount 0.25 ml and 0.5 ml, control JM109 without drug = 100%
  inclination of measured current for 10 seconds from the peak timing, supposing the inclination corresponding to the control to be 100%: 96.1–122.9%
